How the values of the data set were obtained:
The present invention will next be described in detail by way of examples, which should not be construed as limiting the invention thereto. The percent degradation of diacetylspermine (%) in a sample was calculated on the basis of the amount of diacetylspermine as determined through ELISA. […] Subsequently, the pH of the mixture was adjusted with 50 mM phosphate buffer to 5.5, 6.0, 6.5, 7.0, 7.5, or 8.0. Thereafter, the reaction mixture was incubated at 37° C. for two hours. […] Subsequently, the ratio of the amount of diacetylspermine degraded through incubation to the initial amount of diacetylspermine was calculated.

Turning to `CC(=O)NCCCNCCCCNCCCNC(C)=O` [diacetylspermine], the “degradation of diacetylspermine (in words)” value is “prevented”.
